Assays:
FAK [1] = target: T1, FAK (Homo sapiens, UniProt Q05397); test: Cell-based capture ELISA for inhibition of FAK autophosphorylation [pY397] in MiaPaCa2 cells
Experimental: Cell-Based Assays for Inhibition of FAK Autophosphorylation: MiaPaCa2 and U87MG
ELISA kit from Invitrogen (KHO0441).
Reagents Provided in Biosource FAK [pY397]
The cells were then suspended in cell assay medium.

FAK [2] = target: T1, FAK; test: biochemical
[3] = MIA-PaCa2 cells, + 50% mouse plasma (Table 3), read-out: Mean FAK Cell Mechanistic IC50 + 50% mP MIA-PaCa2
[4] = MIA-PaCa2 cells on fibronectin, 2 h, no plasma, read-out: Mean FAK Cell Mechanistic IC50 MIA-PaCa2
[5] = MIA-PaCa2 cells, + 50% human plasma, read-out: Mean FAK Cell Mechanistic IC50 + 50% hP MIA-PaCa2
[6] = MIA-PaCa2 cells, + 50% mouse plasma (Table 2), read-out: Mean FAK Cell Mechanistic IC50 + 50% mP MIA-PaCa2

T1 sequence (Q05397 whole entry): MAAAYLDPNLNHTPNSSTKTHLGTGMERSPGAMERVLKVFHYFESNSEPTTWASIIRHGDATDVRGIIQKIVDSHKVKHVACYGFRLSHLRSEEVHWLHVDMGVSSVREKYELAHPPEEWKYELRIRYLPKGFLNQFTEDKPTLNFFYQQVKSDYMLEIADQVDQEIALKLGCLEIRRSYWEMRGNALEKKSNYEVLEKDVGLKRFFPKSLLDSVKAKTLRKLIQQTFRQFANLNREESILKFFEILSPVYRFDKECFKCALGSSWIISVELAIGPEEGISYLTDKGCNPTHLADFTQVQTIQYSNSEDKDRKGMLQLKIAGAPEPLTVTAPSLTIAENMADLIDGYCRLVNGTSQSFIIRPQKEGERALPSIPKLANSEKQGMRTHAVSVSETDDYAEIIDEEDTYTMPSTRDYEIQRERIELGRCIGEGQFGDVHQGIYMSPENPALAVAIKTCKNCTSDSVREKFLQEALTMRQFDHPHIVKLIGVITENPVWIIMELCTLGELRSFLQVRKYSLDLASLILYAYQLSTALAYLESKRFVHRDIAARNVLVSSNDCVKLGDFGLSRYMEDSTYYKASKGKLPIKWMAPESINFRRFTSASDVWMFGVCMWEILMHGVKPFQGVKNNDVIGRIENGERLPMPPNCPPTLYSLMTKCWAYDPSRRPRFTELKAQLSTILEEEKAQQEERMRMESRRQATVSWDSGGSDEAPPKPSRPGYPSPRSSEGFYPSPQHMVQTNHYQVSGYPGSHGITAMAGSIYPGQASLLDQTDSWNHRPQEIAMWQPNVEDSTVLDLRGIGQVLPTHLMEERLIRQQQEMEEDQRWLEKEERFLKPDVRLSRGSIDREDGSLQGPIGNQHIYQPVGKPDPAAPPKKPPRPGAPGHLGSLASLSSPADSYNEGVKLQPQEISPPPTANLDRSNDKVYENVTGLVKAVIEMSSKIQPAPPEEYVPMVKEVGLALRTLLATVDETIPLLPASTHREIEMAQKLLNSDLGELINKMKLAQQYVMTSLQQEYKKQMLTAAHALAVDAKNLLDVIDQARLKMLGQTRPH

`CCOP(=O)(Cc1ccc(Nc2ncc(C(F)(F)F)c(Nc3ccc([C@H]4CC[C@](C)(O)CC4)c4c3C(=O)N(C)C4)n2)c(OC)c1)OCC` [Example 196, Diethyl (4-{[4-{[7-(trans-4-hydroxy-4-methylcyclohexyl)-2-methyl-3-oxo-2,3-dihydro-1H-isoindol-4-yl]amino}-5-(trifluoromethyl)pyrimidin-2-yl]amino}-3-methoxybenzyl)phosphonate] showed an IC50 (FAK [1]; [3]) of less than 1000 nM and an IC50 (FAK [2]) of less than 1000 nM.

For `CC(C)P(=O)(Cc1cccc(Nc2ncc(C(F)(F)F)c(NCc3cccnc3N(C)S(C)(=O)=O)n2)c1)C(C)C` [Example 9, N-[3-({[2-({3-[(Dipropan-2-ylphosphoryl)methyl]phenyl}amino)-5-(trifluoromethyl)pyrimidin-4-yl]amino}methyl)pyridin-2-yl]-N-methylmethanesulfonamide], the IC50 (FAK [1]; [4]) was less than 1000 nM, the IC50 (FAK [1]; [5]) was less than 1000 nM and the IC50 (FAK [1]; [6]) was less than 1000 nM. For the same molecule, the IC50 (FAK [2]) was less than 1000 nM.

In the case of `CCOP(=O)(Cc1ccc(Nc2ncc(C(F)(F)F)c(Nc3ccc(-c4cnn([C@H]5CC[C@H](O)CC5)c4)c4c3C(=O)N(C)C4)n2)cc1)OCC` [Example 164, Diethyl (4-{[4-({7-[1-(trans-4-hydroxycyclohexyl)-1H-pyrazol-4-yl]-2-methyl-3-oxo-2,3-dihydro-1H-isoindol-4-yl}amino)-5-(trifluoromethyl)pyrimidin-2-yl]amino}benzyl) phosphonate], the IC50 (FAK [1]; [3]) is reported as less than 1000 nM and the IC50 (FAK [2]) is reported as less than 1000 nM.

`CCOP(=O)(Cc1ccc(Nc2ncc(C(F)(F)F)c(Nc3cccc4c3C(=O)N(C)C4(C)C)n2)c(OC)c1)OCC` [Example 148, Diethyl [3-methoxy-4-({5-(trifluoromethyl)-4-[(1,1,2-trimethyl-3-oxo-2,3-dihydro-1H-isoindol-4-yl)amino]pyrimidin-2-yl}amino)benzyl]phosphonate] was tested, and the IC50 (FAK [1]; [3]) was 1000 to 10000 nM and the IC50 (FAK [2]) was less than 1000 nM.

For `CCOC(=O)[C@H]1CC[C@@H](c2ccc(Nc3nc(Nc4ccc(CP(=O)(OCC)OCC)cc4OC)ncc3C(F)(F)F)c3c2CN(C)C3=O)CC1` [Example 87, Ethyl cis-4-(7-{[2-({4-[(diethoxyphosphoryl)methyl]-2-methoxyphenyl}amino)-5-(trifluoromethyl)pyrimidin-4-yl]amino}-2-methyl-1-oxo-2,3-dihydro-1H-isoindol-4-yl)cyclohexanecarboxylate], the IC50 (FAK [1]; [6]) was less than 1000 nM and the IC50 (FAK [2]) was less than 1000 nM.

`CCOP(=O)(Cc1ccc(Nc2ncc(C(F)(F)F)c(Nc3ccc([C@H]4CC[C@H](N5CCN(C(C)=O)CC5)CC4)c4c3C(=O)N(C)C4)n2)c(OC)c1)OCC` [Example 238, diethyl (4-{[4-({7-[trans-4-(4-acetylpiperazin-1-yl)cyclohexyl]-2-methyl-3-oxo-2,3-dihydro-1H-isoindol-4-yl}amino)-5-(trifluoromethyl)pyrimidin-2-yl]amino}-3-methoxybenzyl)phosphonate] showed an IC50 (FAK [1]; [3]) of less than 1000 nM and an IC50 (FAK [2]) of less than 1000 nM.

`CCOP(=O)(Cc1ccc(Nc2ncc(Cl)c(Nc3ccccc3C(=O)NC)n2)cc1)OCC` [Example 48, Diethyl {4-[(5-chloro-4-{[2-(methylcarbamoyl)phenyl]amino}pyrimidin-2-yl)amino]benzyl}phosphonate] gave an IC50 (FAK [1]; [6]) of 1000 to 10000 nM and an IC50 (FAK [2]) of less than 1000 nM.

Molecule `CCOP(=O)(Cc1ccc(Nc2ncc(C(F)(F)F)c(Nc3ccc(-c4cnn(C5CC(O)C5)c4)c4c3C(=O)N(C)C4)n2)c(OC)c1)OCC` (stereo not drawn) [Example 100, Diethyl (4-{[4-({7-[1-(3-hydroxycyclobutyl)-1H-pyrazol-4-yl]-2-methyl-3-oxo-2,3-dihydro-1H-isoindol-4-yl}amino)-5-(trifluoromethyl)pyrimidin-2-yl]amino}-3-methoxybenzyl)phosphonate] has an IC50 (FAK [1]; [3]) of less than 1000 nM and an IC50 (FAK [2]) of less than 1000 nM.

For `CN1Cc2c(c(Nc3nc(Nc4ccc(CP(=O)(OCC(F)(F)F)OCC(F)(F)F)cc4)ncc3C(F)(F)F)ccc2[C@H]2CC[C@H](O)CC2)C1=O` [Example 165, Bis(2,2,2-trifluoroethyl) (4-{[4-{[7-(trans-4-hydroxycyclohexyl)-2-methyl-3-oxo-2,3-dihydro-1H-isoindol-4-yl]amino}-5-(trifluoromethyl)pyrimidin-2-yl]amino}benzyl)phosphonate], the IC50 (FAK [1]; [3]) was less than 1000 nM and the IC50 (FAK [2]) was less than 1000 nM.

Molecule `CCCOP(=O)(Cc1ccc(Nc2ncc(C(F)(F)F)c(NCc3cccnc3N(C)S(C)(=O)=O)n2)cc1)OCCC` [Example 28, dipropyl [4-({4-[({2-[methyl(methylsulfonyl)amino]pyridin-3-yl}methyl)amino]-5-(trifluoromethyl)pyrimidin-2-yl}amino)benzyl]phosphonate] has an IC50 (FAK [1]; [4]) of less than 1000 nM, an IC50 (FAK [1]; [5]) of less than 1000 nM and an IC50 (FAK [1]; [6]) of less than 1000 nM. For the same molecule, the IC50 (FAK [2]) was less than 1000 nM.

With `CCOP(=O)(Cc1ccc(Nc2ncc(C(F)(F)F)c(Nc3ccc(-c4cnn([C@H]5CC[C@H](O)CC5)c4)cc3C(=O)NC)n2)cc1)OCC` [Example 137, Diethyl (4-{[4-({4-[1-(trans-4-hydroxycyclohexyl)-1H-pyrazol-4-yl]-2-(methylcarbamoyl)phenyl}amino)-5-(trifluoromethyl)pyrimidin-2-yl]amino}benzyl)phosphonate] the IC50 (FAK [1]; [3]) was 1000 to 10000 nM and the IC50 (FAK [2]) was less than 1000 nM.

Work on `COP(=O)(OC)c1ccc(Nc2ncc(C(F)(F)F)c(NCc3cccnc3N(C)S(C)(=O)=O)n2)cc1` [Example 36, Dimethyl [4-({4-[({2-[methyl(methylsulfonyl)amino]pyridin-3-yl}methyl)amino]-5-(trifluoromethyl)pyrimidin-2-yl}amino)phenyl]phosphonate] yielded an IC50 (FAK [1]; [6]) of less than 1000 nM and an IC50 (FAK [2]) of less than 1000 nM.

With `CCOP(=O)(Cc1ccc(Nc2ncc(C(F)(F)F)c(Nc3ccc(-c4cnn(CCN(CC)CC)c4)c4c3C(=O)N(C)C4)n2)cc1)OCC` [Example 175, Diethyl [4-({4-[(7-{1-[2-(diethylamino)ethyl]-1H-pyrazol-4-yl}-2-methyl-3-oxo-2,3-dihydro-1H-isoindol-4-yl)amino]-5-(trifluoromethyl)pyrimidin-2-yl}amino)benzyl]phosphonate] the IC50 (FAK [1]; [3]) was less than 1000 nM and the IC50 (FAK [2]) was less than 1000 nM.

`CCOP(C)(=O)Cc1ccc(Nc2ncc(C(F)(F)F)c(NCc3cccnc3N(C)S(C)(=O)=O)n2)cc1` (stereo not drawn) [Example 45, Ethyl methyl[4-({4-[({2-[methyl(methylsulfonyl)amino]pyridin-3-yl}methyl)amino]-5-(trifluoromethyl)pyrimidin-2-yl}amino)benzyl]phosphinate] gave an IC50 (FAK [1]; [4]) of less than 1000 nM, an IC50 (FAK [1]; [5]) of less than 1000 nM and an IC50 (FAK [2]) of less than 1000 nM.

`CCOP(=O)(Cc1ccc(Nc2ncc(C(F)(F)F)c(Nc3ccc(-c4cnn(C)c4)cc3C(=O)NC)n2)cc1)OCC` [Example 125, Diethyl (4-{[4-{[2-(methylcarbamoyl)-4-(1-methyl-1H-pyrazol-4-yl)phenyl]amino}-5-(trifluoromethyl)pyrimidin-2-yl]amino}benzyl)phosphonate] showed an IC50 (FAK [1]; [3]) of less than 1000 nM and an IC50 (FAK [2]) of less than 1000 nM.

In the case of `CNC(=O)c1ccccc1Nc1nc(Nc2cccc(CP(C)(C)=O)c2)ncc1C(F)(F)F` [Example 17, 2-{2-[3-(Dimethylphosphinoylmethyl)phenylamino]-5-trifluoromethylpyrimidin-4-ylamino}-N-methylbenzamide], the IC50 (FAK [1]; [4]) is reported as less than 1000 nM, the IC50 (FAK [1]; [5]) is reported as less than 1000 nM and the IC50 (FAK [1]; [6]) is reported as less than 1000 nM. It also gave an IC50 (FAK [2]) of less than 1000 nM.

Molecule `COCCOP(=O)(Cc1ccc(Nc2ncc(C(F)(F)F)c(Nc3cccc4c3C(=O)N(C)C4)n2)c(OC)c1)OCCOC` [Example 219, Bis(2-methoxyethyl) [3-methoxy-4-({4-[(2-methyl-3-oxo-2,3-dihydro-1H-isoindol-4-yl)amino]-5-(trifluoromethyl)pyrimidin-2-yl}amino)benzyl]phosphonate] has an IC50 (FAK [1]; [3]) of less than 1000 nM and an IC50 (FAK [2]) of less than 1000 nM.

Work on `CCOP(=O)(Cc1ccc(Nc2ncc(C(F)(F)F)c(Nc3ccc(OC(C)C)c4c3C(=O)N(C)C4)n2)cc1)OCC` [Example 207, Diethyl (4-{[4-{[2-methyl-3-oxo-7-(propan-2-yloxy)-2,3-dihydro-1H-isoindol-4-yl]amino}-5-(trifluoromethyl)pyrimidin-2-yl]amino}benzyl)phosphonate] yielded an IC50 (FAK [1]; [3]) of less than 1000 nM and an IC50 (FAK [2]) of less than 1000 nM.

`CCP(=O)(CC)Cc1cccc(Nc2ncc(C(F)(F)F)c(Nc3ccccc3C(=O)NC)n2)c1` [Example 23, 2-{[2-({3-[(Diethylphosphoryl)methyl]phenyl}amino)-5-(trifluoromethyl)pyrimidin-4-yl]amino}-N-methylbenzamide] was tested, and the IC50 (FAK [1]; [4]) was less than 1000 nM, the IC50 (FAK [1]; [5]) was less than 1000 nM and the IC50 (FAK [1]; [6]) was less than 1000 nM. For the same molecule, the IC50 (FAK [2]) was less than 1000 nM.

`CN(c1ncccc1CNc1nc(Nc2cccc(CP(=O)(OCC(C)(C)C)OCC(C)(C)C)c2)ncc1C(F)(F)F)S(C)(=O)=O` [Example 55, bis(2,2-dimethylpropyl) [3-({4-[({2-[methyl(methylsulfonyl)amino]pyridin-3-yl}methyl)amino]-5-(trifluoromethyl)pyrimidin-2-yl}amino)benzyl]phosphonate] gave an IC50 (FAK [1]; [6]) greater than 10000 nM and an IC50 (FAK [2]) of less than 1000 nM.

`CCOP(=O)(Cc1ccc(Nc2ncc(C(F)(F)F)c(Nc3cccc4[nH]cc(C)c(=O)c34)n2)cc1)OCC` [Example 203, Diethyl [4-({4-[(3-methyl-4-oxo-1,4-dihydroquinolin-5-yl)amino]-5-(trifluoromethyl)pyrimidin-2-yl}amino)benzyl]phosphonate] gave an IC50 (FAK [1]; [3]) of less than 1000 nM and an IC50 (FAK [2]) of less than 1000 nM.

In the case of `CCOP(C)(=O)Cc1ccc(Nc2ncc(C(F)(F)F)c(Nc3ccc(-c4cn[nH]c4)c4c3C(=O)N(C)C4)n2)cc1` (stereo not drawn) [Example 67, Ethyl methyl(4-{[4-{[2-methyl-3-oxo-7-(1H-pyrazol-4-yl)-2,3-dihydro-1H-isoindol-4-yl]amino}-5-(trifluoromethyl)pyrimidin-2-yl]amino}benzyl)phosphinate], the IC50 (FAK [1]; [4]) is reported as less than 1000 nM, the IC50 (FAK [1]; [5]) is reported as less than 1000 nM and the IC50 (FAK [2]) is reported as less than 1000 nM.

— patent US9096624B2 (OSI Pharmaceuticals, LLC, priority 2009, dated 2015)
